Laboratory results: PMC10150354, “Linearization of the Brevicidine and Laterocidine Lipopeptides Yields Analogues That Retain Full Antibacterial Activity” (Journal of Medicinal Chemistry, 2023)
In brackets after ≈: the same amount, converted by molar mass. *1 amine or outer side, *2 acyl side, *3 side chain or, on linkers, in order; H or OH if unused. Where a SMILES comes first, the peptide text is derived from it. [ ]: non-standard residue; d: D form. The star is where a group is joined. ξ: configuration not given here. X1 = C[C@@H](N=[N+]=[N-])[C@H](N[*:1])C(=O)[*:2]; Octanoyl(7-Me) = CC(C)CCCCCC(=O)*; Hexanoyl(4ξ-Me) = CCC(C)CCC(=O)*; dOrn = NCCC[C@@H](N)C(=O)O; Orn = NCCC[C@H](N)C(=O)O; Dap = NC[C@H](N)C(=O)O; OAll = C=CCO*

How the values were obtained:
[1] = test system: E. coli (MCR-1); format: cell-based, Escherichia coli; conditions: microbroth dilution per CLSI, MHB, 18 h at 37 °C, visual inspection, three technical replicates, E. coli 25922 carrying mcr-1
Procedure, shortened: (§1)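 MIC taken as the lowest concentration with no visible growth after 18 h, 37 °C, shaking, three technical replicates. Peptides were serially diluted in MHB and received cells from TSB cultures at OD600 ~0.5, diluted to 2 × 10^5 CFU/mL (kanamycin selection for the mcr-1 E. coli), following CLSI guidelines.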

[2] = test system: E. coli ATCC 25922; format: cell-based, Escherichia coli; conditions: for MIC (µg/mL) against E. coli (ATCC 25922): (Supplement 2); for Antibacterial activity (MIC) E. coli ATCC 25922: microbroth dilution per CLSI, MHB, 18 h at 37 °C, visual inspection, three technical replicates
Procedure, shortened: as §1

[3] = test system: K. pneumoniae ATCC 13883; format: cell-based, Klebsiella pneumoniae; conditions: microbroth dilution per CLSI, MHB, 18 h at 37 °C, visual inspection, three technical replicates
Procedure, shortened: as §1

[4] = test system: A. baumannii ATCC 17961; format: cell-based, Acinetobacter baumannii; conditions: microbroth dilution per CLSI, MHB, 18 h at 37 °C, visual inspection, three technical replicates
Procedure, shortened: as §1

[5] = test system: P. aeruginosa PAO1; format: cell-based, Pseudomonas aeruginosa; conditions: microbroth dilution per CLSI, MHB, 18 h at 37 °C, visual inspection, three technical replicates
Procedure, shortened: as §1

[6] = test system: S. aureus USA300; format: cell-based, Staphylococcus aureus; conditions: microbroth dilution per CLSI, MHB, 18 h at 37 °C, visual inspection, three technical replicates
Procedure, shortened: as §1

Structure (SMILES) | Antibacterial activity (MIC) E. coli (MCR-1) [1] [µg/mL] | MIC (µg/mL) against E. coli (ATCC 25922) [2] [µg/mL] | Antibacterial activity (MIC) E. coli ATCC 25922 [2] [µg/mL] | Antibacterial activity (MIC) K. pneumoniae ATCC 13883 [3] [µg/mL] | Antibacterial activity (MIC) A. baumannii ATCC 17961 [4] [µg/mL] | Antibacterial activity (MIC) P. aeruginosa PAO1 [5] [µg/mL] | Antibacterial activity (MIC) S. aureus USA300 [6] [µg/mL]
CCC(C)CCC(=O)N[C@H](CC(N)=O)C(=O)N[C@H](Cc1ccc(O)cc1)C(=O)N[C@H](Cc1c[nH]c2ccccc12)C(=O)N[C@H](CCCN)C(=O)N[C@@H](CCCN)C(=O)NCC(=O)N[C@H](CCCN)C(=O)N[C@@H](Cc1c[nH]c2ccccc12)C(=O)N[C@@H](CC(=O)O)C(=O)N[C@H](C(=O)NCC(N)=O)[C@@H](C)CC (some centres unmarked) [Δ12LB (Asp9)-NH2 (63)] ({Hexanoyl(4ξ-Me)}-[dN][dY][dW][dOrn][Orn]G[dOrn]WDIG-NH2) | >32 | 4 (≈ 2.73 µM) | >32 | >32 | >32 | 4 | >32
CCC(C)CCC(=O)N[C@H](CC(N)=O)C(=O)N[C@H](Cc1ccc(O)cc1)C(=O)N[C@H](Cc1c[nH]c2ccccc12)C(=O)N[C@H](CCCN)C(=O)N[C@@H](CCCN)C(=O)NCC(=O)N[C@H](CCCN)C(=O)N[C@@H](Cc1c[nH]c2ccccc12)C(=O)N[C@@H](CN)C(=O)N[C@H](C(=O)NCC(N)=O)[C@@H](C)CC (some centres unmarked) [Δ12LB (Dap9)-NH2 (64)] ({Hexanoyl(4ξ-Me)}-[dN][dY][dW][dOrn][Orn]G[dOrn]W[Dap]IG-NH2) | 8 | >32 | 8 | >32 | 16 | 4 | >32
CCC(C)CCC(=O)N[C@H](CC(N)=O)C(=O)N[C@H](Cc1ccc(O)cc1)C(=O)N[C@H](Cc1c[nH]c2ccccc12)C(=O)N[C@H](CCCN)C(=O)N[C@@H](CCCN)C(=O)NCC(=O)N[C@H](CCCN)C(=O)N[C@@H](Cc1c[nH]c2ccccc12)C(=O)N[C@@H](CCC(N)=O)C(=O)N[C@H](C(=O)NCC(N)=O)[C@@H](C)CC (some centres unmarked) [Δ12LB (Gln9)-NH2 (59)] ({Hexanoyl(4ξ-Me)}-[dN][dY][dW][dOrn][Orn]G[dOrn]WQIG-NH2) | 8 | 8 (≈ 5.42 µM) | 8 | 16 | 16 | 2 | >32
C=CCOC(=O)CC[C@H](NC(=O)[C@H](Cc1c[nH]c2ccccc12)NC(=O)[C@@H](CCCN)NC(=O)CNC(=O)[C@H](CCCN)NC(=O)[C@@H](CCCN)NC(=O)[C@@H](Cc1c[nH]c2ccccc12)NC(=O)[C@@H](Cc1ccc(O)cc1)NC(=O)[C@@H](CC(N)=O)NC(=O)CCC(C)CC)C(=O)N[C@H](C(=O)NCC(N)=O)[C@@H](C)CC (some centres unmarked) [Δ12LB (Glu[OAll]9)-NH2 (62)] ({Hexanoyl(4ξ-Me)}-[dN][dY][dW][dOrn][Orn]G[dOrn]WE(OAll)IG-NH2) | 8 | 4 (≈ 2.64 µM) | 4 | 4 | 8 | 2 | >32
CCC(C)CCC(=O)N[C@H](CC(N)=O)C(=O)N[C@H](Cc1ccc(O)cc1)C(=O)N[C@H](Cc1c[nH]c2ccccc12)C(=O)N[C@H](CCCN)C(=O)N[C@@H](CCCN)C(=O)NCC(=O)N[C@H](CCCN)C(=O)N[C@@H](Cc1c[nH]c2ccccc12)C(=O)N[C@@H](CC(C)C)C(=O)N[C@H](C(=O)NCC(N)=O)[C@@H](C)CC (some centres unmarked) [Δ12LB (Leu9)-NH2 (53)] ({Hexanoyl(4ξ-Me)}-[dN][dY][dW][dOrn][Orn]G[dOrn]WLIG-NH2) | 4 | 8 (≈ 5.47 µM) | 4 | 4 | 4 | 8 | >32
CCC(C)CCC(=O)N[C@H](CC(N)=O)C(=O)N[C@H](Cc1ccc(O)cc1)C(=O)N[C@H](Cc1c[nH]c2ccccc12)C(=O)N[C@H](CCCN)C(=O)N[C@@H](CCCN)C(=O)NCC(=O)N[C@H](CCCN)C(=O)N[C@@H](Cc1c[nH]c2ccccc12)C(=O)N[C@H](C(=O)N[C@H](C(=O)NCC(N)=O)[C@@H](C)CC)[C@@H](C)N=[N+]=[N-] (some centres unmarked) [Δ12LB (MeAbu9)-NH2 (60)] ({Hexanoyl(4ξ-Me)}-[dN][dY][dW][dOrn][Orn]G[dOrn]W[X1]IG-NH2) | 4 | 8 (≈ 5.42 µM) | 4 | 2 | 2 | 4 | >32
CCC(C)CCC(=O)N[C@H](CC(N)=O)C(=O)N[C@H](Cc1ccc(O)cc1)C(=O)N[C@H](Cc1c[nH]c2ccccc12)C(=O)N[C@H](CCCN)C(=O)N[C@@H](CCCN)C(=O)NCC(=O)N[C@H](CCCN)C(=O)N[C@@H](Cc1c[nH]c2ccccc12)C(=O)N[C@@H](CCSC)C(=O)N[C@H](C(=O)NCC(N)=O)[C@@H](C)CC (some centres unmarked) [Δ12LB (Met9)-NH2 (55)] ({Hexanoyl(4ξ-Me)}-[dN][dY][dW][dOrn][Orn]G[dOrn]WMIG-NH2) | 4 | 2 (≈ 1.35 µM) | 4 | 4 | 4 | 4 | >32
CCC(C)CCC(=O)N[C@H](CC(N)=O)C(=O)N[C@H](Cc1ccc(O)cc1)C(=O)N[C@H](Cc1c[nH]c2ccccc12)C(=O)N[C@H](CCCN)C(=O)N[C@@H](CCCN)C(=O)NCC(=O)N[C@H](CCCN)C(=O)N[C@@H](Cc1c[nH]c2ccccc12)C(=O)N[C@@H](Cc1c[nH]c2ccccc12)C(=O)N[C@H](C(=O)NCC(N)=O)[C@@H](C)CC (some centres unmarked) [Δ12LB (Trp9)-NH2 (56)] ({Hexanoyl(4ξ-Me)}-[dN][dY][dW][dOrn][Orn]G[dOrn]WWIG-NH2) | 4 | 4 (≈ 2.61 µM) | 4 | 8 | 4 | 8 | 16
CCC(C)CCC(=O)N[C@H](CC(N)=O)C(=O)N[C@H](Cc1ccc(O)cc1)C(=O)N[C@H](Cc1c[nH]c2ccccc12)C(=O)N[C@H](CCCN)C(=O)N[C@@H](CCCN)C(=O)NCC(=O)N[C@H](CCCN)C(=O)N[C@@H](Cc1c[nH]c2ccccc12)C(=O)N[C@H](C(=O)N[C@H](C(=O)NCC(N)=O)[C@@H](C)CC)[C@@H](C)O (some centres unmarked) [Δ12LB-NH2 (9)] ({Hexanoyl(4ξ-Me)}-[dN][dY][dW][dOrn][Orn]G[dOrn]WTIG-NH2) | 16 | – | 8 | 8 | 8 | 4 | >32
CC[C@H](C)[C@H](NC(=O)[C@@H](NC(=O)[C@H](Cc1c[nH]c2ccccc12)NC(=O)[C@@H](CCCN)NC(=O)CNC(=O)[C@H](CCCN)NC(=O)[C@@H](CCCN)NC(=O)[C@@H](Cc1c[nH]c2ccccc12)NC(=O)[C@@H](Cc1ccc(O)cc1)NC(=O)[C@@H](CO)NC(=O)CCCCCC(C)C)[C@@H](C)O)C(=O)N[C@@H](CC(N)=O)C(N)=O [Δ12–13LL-NH2 (10)] ({Octanoyl(7-Me)}-[dS][dY][dW][dOrn][Orn]G[dOrn]WTIN-NH2) | 8 | – | 4 | 8 to 16 | 4 | 4 | >32
